Here are results for two molecules from ChEMBL document CHEMBL1124834, “5-HT1 and 5-HT2 binding profiles of the serotonergic agents alpha-methylserotonin and 2-methylserotonin” (J Med Chem, 1990).

Assay [1] deals with Serotonin 2 (5-HT2) receptor (Rattus norvegicus, UniProt P30994+P08909+P14842).
The target in assay [2] is 5-hydroxytryptamine receptor 1E (Homo sapiens, UniProt P28566).
Assay [3] deals with T1, 5-hydroxytryptamine receptor 2C (Rattus norvegicus, UniProt P08909).
T1 sequence (P08909 whole entry): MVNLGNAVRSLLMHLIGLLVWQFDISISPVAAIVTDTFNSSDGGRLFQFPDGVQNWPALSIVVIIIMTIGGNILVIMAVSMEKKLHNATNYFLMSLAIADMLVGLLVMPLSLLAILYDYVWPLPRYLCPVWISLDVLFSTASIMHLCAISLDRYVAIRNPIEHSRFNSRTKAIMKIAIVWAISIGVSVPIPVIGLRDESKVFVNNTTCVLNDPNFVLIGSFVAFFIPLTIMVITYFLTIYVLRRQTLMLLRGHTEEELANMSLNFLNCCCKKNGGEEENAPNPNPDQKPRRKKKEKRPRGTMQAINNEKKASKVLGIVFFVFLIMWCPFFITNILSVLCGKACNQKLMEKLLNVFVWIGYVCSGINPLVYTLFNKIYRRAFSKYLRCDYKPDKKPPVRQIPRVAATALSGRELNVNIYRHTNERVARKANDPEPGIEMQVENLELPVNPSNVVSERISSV

Assay [4] concerns the target T2, 5-hydroxytryptamine receptor 1A (Rattus norvegicus, UniProt P19327).
T2 sequence (P19327 whole entry): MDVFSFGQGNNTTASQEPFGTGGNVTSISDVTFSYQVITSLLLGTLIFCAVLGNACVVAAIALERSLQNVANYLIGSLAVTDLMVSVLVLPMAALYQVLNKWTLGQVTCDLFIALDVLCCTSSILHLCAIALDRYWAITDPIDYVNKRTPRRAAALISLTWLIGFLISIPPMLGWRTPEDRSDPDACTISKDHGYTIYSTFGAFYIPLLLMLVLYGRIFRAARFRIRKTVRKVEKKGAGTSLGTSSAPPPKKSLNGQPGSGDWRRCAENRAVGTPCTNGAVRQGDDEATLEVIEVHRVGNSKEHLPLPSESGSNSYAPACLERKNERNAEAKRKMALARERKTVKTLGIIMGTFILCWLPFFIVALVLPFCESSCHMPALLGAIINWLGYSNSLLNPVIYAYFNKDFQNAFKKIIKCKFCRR

Assay [5] deals with 5-hydroxytryptamine receptor 1B (Rattus norvegicus, UniProt P28564).
Chain of 5-hydroxytryptamine receptor 1B (P28564 whole entry): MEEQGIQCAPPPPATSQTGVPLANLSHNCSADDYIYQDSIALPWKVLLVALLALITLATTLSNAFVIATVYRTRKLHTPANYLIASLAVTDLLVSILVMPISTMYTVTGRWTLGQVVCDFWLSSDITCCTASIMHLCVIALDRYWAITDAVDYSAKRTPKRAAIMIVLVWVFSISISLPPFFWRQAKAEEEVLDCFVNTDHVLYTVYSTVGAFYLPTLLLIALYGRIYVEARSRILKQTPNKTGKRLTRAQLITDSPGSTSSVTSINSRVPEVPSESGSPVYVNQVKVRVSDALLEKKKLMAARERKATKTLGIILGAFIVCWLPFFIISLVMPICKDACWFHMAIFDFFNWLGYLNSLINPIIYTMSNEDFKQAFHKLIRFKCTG

Chain of 5-hydroxytryptamine receptor 1E (P28566 whole entry): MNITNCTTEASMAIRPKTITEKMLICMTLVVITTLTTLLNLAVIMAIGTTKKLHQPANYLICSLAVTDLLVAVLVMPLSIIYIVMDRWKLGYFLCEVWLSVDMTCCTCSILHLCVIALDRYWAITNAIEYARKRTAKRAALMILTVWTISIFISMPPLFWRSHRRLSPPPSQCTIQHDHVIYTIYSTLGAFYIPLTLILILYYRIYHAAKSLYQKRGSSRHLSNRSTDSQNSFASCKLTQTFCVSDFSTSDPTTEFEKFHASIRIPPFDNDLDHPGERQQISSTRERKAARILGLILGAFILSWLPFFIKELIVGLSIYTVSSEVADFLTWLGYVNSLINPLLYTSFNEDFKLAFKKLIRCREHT

The Ki is a measure of affinity in units of concentration, obtained from inhibition or displacement. On to `COc1ccc2[nH]c(C)c(CCN)c2c1`, for which the Ki was > 10 µM in assay [1]; > 10 µM in assay [2]; 0.69 µM in assay [3]; 1.3 µM in assay [4]; 0.8 µM in assay [5].

Regarding `Cc1[nH]c2ccc(O)cc2c1CCN`, the Ki in assay [1] is > 10 µM; in assay [2], > 10 µM; in assay [3], 0.65 µM; in assay [4], 1.2 µM; in assay [5], 0.52 µM.
